Values of other authors in patent US20060280691A1 (University of Alberta, priority 2005, published 2006).
Values after ≈ are worked out from the molar mass of the structure shown.

SMILES: O=C(O)c1cn(C2CC2)c2cc(N3CCNCC3)c(F)cc2c1=O [Ciprofloxacin, ciprofloxacin]
- MIC90 (Streptococcus pyogenes): 1 µg/mL (≈ 3.02 µM)
- MIC90 (Neisseria gonorrhoeae): 0.004 µg/mL (≈ 0.0121 µM)
- MIC (Bacillus anthracis): 1.6 µg/mL (≈ 4.83 µM)
- MIC90 (Pseudomonas aeruginosa): 4 µg/mL (≈ 12.1 µM)
